Laboratory results published in patent US4272517A, “Permanent waving compositions” (Kanegafuchi Kagaku Kogyo Kabushiki Kaisha, priority 1978, dated 1981).

Experiments:
[1] = Acute oral toxicity (LD50) determined on mice; assay type: in vivo; conditions: mouse, in vivo, oral administration
Source text: (§1) The N-carbamoylcysteine to be used in this invention is preferably N-carbamoyl-L-cysteine or N-carbamoyl-DL-cysteine from the viewpoint of practical usefulness but can be N-carbamoyl-D-cysteine. N-carbamoyl-L-cysteine can be prepared easily, for example, by reacting L-cysteine with potassium cyanate. Since it is possible to synthesize N-carbamoyl-DL-cysteine from an inexpensive industrial material, the compound can presumably be prepared more economically than N-carbamoyl-L-cysteine.

mice = assay: Acute oral toxicity (LD50) determined on mice; assay type: in vivo; conditions: oral administration
Source text: as §1

[2] = assay type: physicochemical
Experimental: Eleven kinds of test solutions were prepared with use of L-cysteine and N-carbamoylcysteine in varying ratios as shown in Table 3 to test the solutions for storage stability. Basically these solutions have the following composition.
Each of the solutions was prepared by adding monoethanolamine (about 3 ml), L-cysteine, N-carbamoyl-L-cysteine and tetrasodium ethylenediaminetetraacetate to about 80 ml of purified water in the order mentioned with stirring, and adjusting the resulting solution to 100 ml with its pH adjusted to 9.1 with monoethanolamine. […] Test Solution A is a reference example.
The test solutions were prepared on the same day, placed into 200-ml colorless wide-mouthed reagent bottles respectively and allowed to stand at room temperature (20° to 26° C.) for 60 days with the mouths of the bottles left open. Consequently white powder of cystine separated out on the 9th day from Test Solution A containing L-cysteine alone, whereas Test Solutions B and C further containing N-carbamoyl-L-cysteine yielded white powder on the 15th day and 32nd day respectively. No powdery deposition was found in Test Solutions D to K even after the lapse of 60 days. […]

Solubility = assay type: physicochemical; conditions: at a pH of below 8.7
[3] = background statement; cited from earlier work

Row | Structure (SMILES) | LD50 [1] [mg/kg] | toxicity (in words) (mice) | stabilizing effect on cysteine (in words) [2] | also measured
1 | NC(=O)NC(CS)C(=O)O (racemic) [N-carbamoyl-DL-cysteine] | 13100 | extremely low in toxicity |  | 
2 | CC(=O)N[C@@H](CS)C(=O)O [N-acetylcysteine, N-acetyl-L-cysteine, reference compound] |  |  | adds to the stability of cysteine | 
3 | NC(=O)N[C@@H](CS)C(=O)O [N-carbamoyl-L-cysteine] | 13500 | extremely low in toxicity |  | 
4 | NC(=O)N[C@@H](CS)C(=O)O [N-carbamoylcysteine] |  |  | exceedingly superior | solubility (in words) (Solubility): not easily soluble
5 | N[C@@H](CSSC[C@H](N)C(=O)O)C(=O)O [cystine] |  |  |  | solubility in water (in words) [3]: hardly soluble in water
